These results are taken from ChEMBL document CHEMBL4130540, “Multifunctional iminochromene-2H-carboxamide derivatives containing different aminomethylene triazole with BACE1 inhibitory, neuroprotective and metal chelating properties targeting Alzheimer's disease” (Eur J Med Chem, 2017).

SMILES strings stand for the structures. pIC50: −log10 of the molar value. Activity calls are given as the source filed them. The rule behind the calls is not given here.

Data set [1] addresses T1, Beta-secretase 1 (Homo sapiens, UniProt P56817). In words: Inhibition of recombinant human BACE1 (1 to 460 residues) expressed in baculovirus infected insect cells at 50 uM using Rh-EVNLDAEFK-Quencher as substrate incubated under dark condition for 90 mins by FRET assay relative to control.
For data set [2], the target named is T1, Beta-secretase 1. Kind of data set: Inhibition of recombinant human BACE1 (1 to 460 residues) expressed in baculovirus infected insect cells at 10 uM using Rh-EVNLDAEFK-Quencher as substrate incubated under dark condition for 90 mins by FRET assay relative to control.
In data set [3] the test system is PC-12. In words: Cytotoxicity against rat PC12 cells up to 100 uM after 24 hrs by MTT assay. In kind it is cell-based. The following applies: pc-12, 24 h.
Data set [4] concerns PC-12. In words: Neuroprotection against amyloid beta (25 to 35)-induced cell death in rat PC12 cells at 25 uM preincubated for 3 hrs followed by amyloid beta addition measured after 24 hrs by MTT assay relative to control. The class given is functional. (In general: Formazan colour is commonly taken as a measure of viable cells.)
For data set [5], the system named is PC-12. In words: Neuroprotection against amyloid beta (25 to 35)-induced cell death in rat PC12 cells at 15 uM preincubated for 3 hrs followed by amyloid beta addition measured after 24 hrs by MTT assay relative to control. The class given is functional.
Data set [6] has as its system PC-12. In words: Neuroprotection against amyloid beta (25 to 35)-induced cell death in rat PC12 cells at 10 uM preincubated for 3 hrs followed by amyloid beta addition measured after 24 hrs by MTT assay relative to control. The class given is functional.
The target in data set [7] is T1, Beta-secretase 1. Kind of data set: Inhibition of recombinant human BACE1 (1 to 460 residues) expressed in baculovirus infected insect cells using Rh-EVNLDAEFK-Quencher as substrate incubated under dark condition for 90 mins by FRET assay.
The nature of data set [8]: Metal chelating activity assessed as compound-Fe2+ complex formation at 400 uM preincubated with ferrous ion FeCl2 followed by ferrozine addition measured after 10 mins by spectroscopic method.
For data set [9], the system named is PC-12. Kind of data set: Neuroprotection against amyloid beta (25 to 35)-induced cell death in rat PC12 cells preincubated for 3 hrs followed by amyloid beta addition measured after 24 hrs by MTT assay. The class given is functional, cell-based.
The nature of data set [10]: Metal chelating activity assessed as compound-Fe2+ complex formation at 20 uM after 30 mins by UV-Visible spectroscopic method.
Data set [11] can be described thus: Metal chelating activity assessed as mole fraction of compound required to show 3:2 stoichiometry for Fe2+-compound complex at 20 uM after 30 min by UV-Visible spectroscopic method.

T1 sequence (P56817 whole entry, the tested form may be a part): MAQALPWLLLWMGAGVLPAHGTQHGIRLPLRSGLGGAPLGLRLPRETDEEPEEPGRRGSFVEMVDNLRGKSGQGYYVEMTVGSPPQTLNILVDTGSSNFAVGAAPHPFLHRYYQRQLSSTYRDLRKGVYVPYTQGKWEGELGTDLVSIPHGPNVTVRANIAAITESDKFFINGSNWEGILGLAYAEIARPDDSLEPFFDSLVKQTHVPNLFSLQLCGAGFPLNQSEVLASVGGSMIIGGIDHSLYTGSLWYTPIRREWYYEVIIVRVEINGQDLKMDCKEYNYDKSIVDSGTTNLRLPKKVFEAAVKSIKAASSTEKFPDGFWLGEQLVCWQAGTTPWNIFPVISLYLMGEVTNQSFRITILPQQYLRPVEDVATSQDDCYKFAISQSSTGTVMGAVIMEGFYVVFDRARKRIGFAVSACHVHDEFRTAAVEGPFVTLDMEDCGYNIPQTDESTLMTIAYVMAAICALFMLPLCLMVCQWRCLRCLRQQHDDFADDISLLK

As usually defined, the inhibition is how much of the control response was suppressed. For `N=c1oc2ccccc2cc1C(=O)Nc1cc(Br)ccc1NCc1cn(Cc2ccccc2)nn1`, the inhibition in data set [1] worked out at 25.2%; in data set [2] it was 12.1%. For the same compound, the Activity entry in data set [3] is “Non-Toxic”.
As to `Cc1ccc(Cn2cc(CNc3ccc(Br)cc3NC(=O)c3cc4ccccc4oc3=N)nn2)cc1`, the inhibition in data set [1] was 52.4%; in [2], 38.3%. The Activity in data set [4] is reported as 19.2%; in [5], 83.8%; in data set [3], “Non-Toxic”.
As for `N=c1oc2ccccc2cc1C(=O)Nc1cc(Br)ccc1NCc1cn(Cc2ccc(F)cc2)nn1`, the inhibition came out at 45.9% in [1] and 21.3% in data set [2]. Also, the figures for the Activity in data set [4], in [6] and in [3] were 22.2%, 13.1% and “Non-Toxic”, respectively.
As usually defined, the pIC50 is the negative decadic logarithm of the IC50, by convention in mol/L. In the case of `N=c1oc2ccccc2cc1C(=O)Nc1cc(Br)ccc1NCc1cn(CCCCN2C(=O)c3ccccc3C2=O)nn1`, the negative-log IC50 (pIC50) in data set [7] and in [9] was 5.17 throughout. Further, the results for the inhibition in data set [1] and in data set [2] were 77.6% and 55.7%, respectively. Further, the Activity in data set [8] is 12.8%; in data set [6], 67.8%; in data set [3], “Non-Toxic”.
`N=c1oc2ccccc2cc1C(=O)Nc1cc(Br)ccc1NCc1cn(Cc2ccc(Br)cc2)nn1`: the pIC50 was 5.19 in data set [7] and 4.42 in data set [9]. The inhibition came to 100% in [1] and 72.3% in data set [2]. The Activity in [8] is 45.2%; in data set [4], 37.5%; in [6], 16.4%; in [3] it was “Non-Toxic”; in [11], 1.5 molar ratio. For the same compound, in data set [10], the outcome was Active.
For the compound `N=c1oc2ccccc2cc1C(=O)Nc1cc(Br)ccc1NCc1cn(CCCN2C(=O)c3ccccc3C2=O)nn1`, the pIC50 is 5.66 in data set [7] and 5.10 in data set [9]. The inhibition in data set [1] was 84.2%; in data set [2], 83.5%. In addition, the Activity in [8] was 10.2%; in data set [4] it was 100%; in data set [6] it was 78.8%; in data set [3] it was “Non-Toxic”.
As for `N=c1oc2ccccc2cc1C(=O)Nc1cc(Br)ccc1NCc1cn(Cc2ccc(Cl)c(Cl)c2)nn1`, the figures for the negative logarithm of the IC50 (pIC50) in [7] and in data set [9] were 5.12 and 4.04, respectively. For the same compound, the inhibition in [1] turned out to be 60.8%; in data set [2], 52%. Moreover, the values for the Activity in data set [4], in data set [6] and in data set [3] were 49.8%, 21.8% and “Non-Toxic”, respectively.
In the case of `O=C(O)CN(CCN(CC(=O)O)CC(=O)O)CC(=O)O`, the Activity in [8] was determined as 96.4%.
`N=c1oc2ccccc2cc1C(=O)Nc1cc(Br)ccc1NCc1cn(Cc2cccc(Cl)c2Cl)nn1`: the negative-log IC50 (pIC50) in data set [7] was 4.81; in data set [9], 4.72. Besides, the figures for the inhibition in data set [1] and in data set [2] were 62% and 47.8%, respectively. The Activity in [4] is on record as 57.2%; in [6], 23.6%; in data set [3] it was “Non-Toxic”.
`O=C(O)/C=C/c1ccc(O)c(O)c1` [CAFFEIC ACID] had a pIC50 in [9] of 4.12.
Consider `COc1ccc(Cn2cc(CNc3ccc(Br)cc3NC(=O)c3cc4ccccc4oc3=N)nn2)cc1`, for which the inhibition in data set [1] came to 34.5%; in [2] it was 10%. For the same compound, the Activity in data set [4] is listed as 22%; in data set [6] it was 28.4%; in data set [3], “Non-Toxic”.
